Several values for one entry are separate records, joined by “and”; a condition that tells them apart may be missing. Identical values can stand only once.
System: 299254-011-R-J1-PDC complex spheroids viability
Test: Anticancer human tumor 299254-011-R-J1-PDC patient-derived melanoma cell line growth inhibition [GQUAD]
Details: for viability, T/C: stronger effect = lower value
Text: DNA G-quadruplex Stabilizer Agents in Combinations in Complex Spheroids
A high-throughput screen of multi-cell type tumor spheroids was designed to identify active combinations of DNA G-quadruplex stabilizer agents and targeted small molecules. Complex spheroids include a stromal component modeled by human endothelial cells (HUVEC) and fibroblasts modeled by human mesenchymal stem cells (MSCs). The concentration ranges selected for each drug and investigational agent were based upon clinically achievable concentrations if the clinical Cmax of the agent was known.
Compounds. The drugs and investigational agents: pidnarulex (CX-5461; NSC782164), APTO-253 (NSC789042), BRACO-19 (NSC847499), peposertib (NSC802822), ceralasertib (NSC780249), elimusertib (NSC800525), camonsertib (NSC841442), AZD-1390 (NSC803789), olaparib (NSC753686), talazoparib (NSC767125), ART-558 (NSC835418), sotorasib (NSC818433), MRTX-1133 (NSC836407), SN-38 (NSC673596), topotecan (NSC609699), etoposide (NSC141540), doxorubicin (NSC123127), gemcitabine (NSC613327), 5-fluorouracil (NSC19893), paclitaxel (NSC125973), vemurafenib (NSC761431), panobinostat (NSC761190), R-306465 (JNJ-16241199; NSC773264), adavosertib (NSC754352), TP-3654 (NSC805149), carboplatin (NSC241240), KSQ-4279 (NSC840948), and staurosporine (NSC755774) were obtained from the National Cancer Institute (NCI) Developmental Therapeutics Program Chemical Repository (34). The FDA-approved anticancer drug set is available from the NCI Developmental Therapeutics Program. […] The stock solutions were prepared in dimethyl sulfoxide (DMSO, Sigma-Aldrich, St. Louis, MO, cat. D2650) at 800-fold the tested concentration and stored at -70 degrees C prior to their use. All drugs and investigational agents were tested over a range starting from a high concentration at or near the clinical Cmax and decreasing in half-log increments. If the clinical Cmax for an agent had not been determined, the highest concentration tested was 10 microM.
2.3 Cell Culture. All cells were maintained in an incubator at 37 degrees C and 5% CO2 with 95% humidity. The PDC lines were cultured according to standard operating procedures established by the NCI PDMR. All PDCs were thawed and cultured in Matrigel-coated flasks prepared with a working solution of 1X Ham's F-12 nutrient mix, without supplementation (Invitrogen, cat. 11765054), 100 U/mL penicillin-streptomycin (Invitrogen, cat. 15140122), and 2.5% Matrigel (Corning Inc., cat. 354248) for the first three passages. The 857933-349-R-J2-PDC line was cultured in 6C/Colon 1B media, which includes advanced DMEM/F-12 (Thermo Fisher Scientific, cat. 12634028), 10 mM HEPES (Thermo Fisher Scientific, cat. 15630080), 1X GlutaMAX supplement (Thermo Fisher Scientific, cat. 35050061), 0.1 mg/mL primocin (InvivoGen, cat. ant-pm-2), 10% defined fetal bovine serum, heat inactivated (HyClone Laboratories Inc., cat. SH30070.03HI), 50% L-WRN conditioned media (ATCC, cat. CRL-3276), 1.25 mM N-Acetyl-L-cysteine (Sigma-Aldrich, cat. A9165), 10 mM nicotinamide (Sigma-Aldrich, cat. N0636), 1X B-27 supplement (Thermo Fisher Scientific, cat. 17504044), 1X N-2 supplement (Thermo Fisher Scientific, cat. 17502048), 10 microM Y-27632 dihydrochloride (Tocris Bioscience, cat. 1254), and 50 ng/mL human EGF recombinant protein (Thermo Fisher Scientific, cat. PHG0311). The 485176-168-R4-J1-PDC line was cultured in Panc media, which includes all 6C/Colon 1B media components plus 100 ng/mL human FGF-10 (Thermo Fisher Scientific, cat. 100-26), 500 nM SB-431542 (Selleckchem, cat. S1067), and gastrin (Tocris, cat. 3006).
[…]

[1] = curve of first compound, second compound 0.0316 µM
[2] = curve of first compound, second compound 0.1 µM
[3] = curve of first compound, second compound 0.316 µM
[4] = curve of first compound, second compound 1 µM
[5] = curve of first compound, second compound 3.16 µM
[6] = curve of first compound, second compound 10 µM
[7] = second compound 0.0316 µM, first compound 0.0316 µM
[8] = second compound 0.0316 µM, first compound 0.316 µM
[9] = second compound 0.1 µM, first compound 0.0316 µM
[10] = second compound 0.1 µM, first compound 0.316 µM
[11] = second compound 0.316 µM, first compound 0.0316 µM
[12] = second compound 0.316 µM, first compound 0.316 µM
[13] = second compound 1 µM, first compound 0.0316 µM
[14] = second compound 1 µM, first compound 0.316 µM
[15] = second compound 3.16 µM, first compound 0.0316 µM
[16] = second compound 3.16 µM, first compound 0.316 µM
[17] = second compound 10 µM, first compound 0.0316 µM
[18] = second compound 10 µM, first compound 0.316 µM
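Note: spheroids exposed to the agents for seven days before readout.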
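Throughout, for viability, T/C: percent viability relative to DMSO vehicle control wells = 100%.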

For `CCc1c2c(nc3ccc(O)cc13)-c1cc3c(c(=O)n1C2)COC(=O)[C@]3(O)CC` + Cc1cnc(CNC(=O)c2c(=O)c3ccc(N4CCCN(C)CC4)nc3n3c2sc2ccccc23)cn1, the IC50 [1] was > 0.316 µM, the IC50 [2] was > 0.316 µM and the IC50 [3] was > 0.316 µM. The IC50 [4] was > 0.316 µM, the IC50 [5] was 0.142 µM and the IC50 [6] was < 0.000999 µM. The viability, T/C (second compound 0.0316 µM, first compound 0.000999 µM) was 102%, the viability, T/C (second compound 0.0316 µM, first compound 0.00316 µM) was 95.6% and the viability, T/C (second compound 0.0316 µM, first compound 0.00999 µM) was 68.3%. It also gave a viability, T/C [7] of 70.9%, a viability, T/C (second compound 0.0316 µM, first compound 0.0999 µM) of 76.7% and a viability, T/C [8] of 62.3%. The viability, T/C (second compound 0.1 µM, first compound 0.000999 µM) was 95.5%, the viability, T/C (second compound 0.1 µM, first compound 0.00316 µM) was 107% and the viability, T/C (second compound 0.1 µM, first compound 0.00999 µM) was 76.5%. The viability, T/C [9] was 71.2%, the viability, T/C (second compound 0.1 µM, first compound 0.0999 µM) was 65.5% and the viability, T/C [10] was 60.2%. For the same molecule, the viability, T/C (second compound 0.316 µM, first compound 0.000999 µM) was 93.8%, the viability, T/C (second compound 0.316 µM, first compound 0.00316 µM) was 95.4% and the viability, T/C (second compound 0.316 µM, first compound 0.00999 µM) was 72.4%. The viability, T/C [11] was 67.8%, the viability, T/C (second compound 0.316 µM, first compound 0.0999 µM) was 68.2% and the viability, T/C [12] was 60.5%. For the same molecule, the viability, T/C (second compound 1 µM, first compound 0.000999 µM) was 76.4%, the viability, T/C (second compound 1 µM, first compound 0.00316 µM) was 79.8% and the viability, T/C (second compound 1 µM, first compound 0.00999 µM) was 77.5%. It also gave a viability, T/C [13] of 74.8%, a viability, T/C (second compound 1 µM, first compound 0.0999 µM) of 54.6% and a viability, T/C [14] of 63.4%. For the same molecule, the viability, T/C (second compound 3.16 µM, first compound 0.000999 µM) was 77.6%, the viability, T/C (second compound 3.16 µM, first compound 0.00316 µM) was 68% and the viability, T/C (second compound 3.16 µM, first compound 0.00999 µM) was 64%. It also gave a viability, T/C [15] of 59%, a viability, T/C (second compound 3.16 µM, first compound 0.0999 µM) of 56% and a viability, T/C [16] of 43%. The viability, T/C (second compound 10 µM, first compound 0.000999 µM) was 0.47%, the viability, T/C (second compound 10 µM, first compound 0.00316 µM) was 20.1% and the viability, T/C (second compound 10 µM, first compound 0.00999 µM) was 34.8%. It also gave a viability, T/C [17] of 11.9%, a viability, T/C (second compound 10 µM, first compound 0.0999 µM) of 0.39% and a viability, T/C [18] of 0.32%.

For `C=CCn1c(=O)c2cnc(Nc3ccc(N4CCN(C)CC4)cc3)nc2n1-c1cccc(C(C)(C)O)n1` + CN(C)c1ccc(Nc2c3ccc(NC(=O)CCN4CCCC4)cc3nc3cc(NC(=O)CCN4CCCC4)ccc23)cc1, the IC50 [1] was 0.999 µM, the IC50 [2] was 1.79 µM and the IC50 [3] was 1.75 µM. For the same molecule, the IC50 [4] was 2.28 µM, the IC50 [5] was 1.97 µM and the IC50 [6] was 1.68 µM. The viability, T/C [7] was 101%, the viability, T/C (second compound 0.0316 µM, first compound 0.1 µM) was 106% and the viability, T/C [8] was 77.8%. It also gave a viability, T/C (second compound 0.0316 µM, first compound 1 µM) of 49.7%, a viability, T/C (second compound 0.0316 µM, first compound 3.16 µM) of 46.8% and a viability, T/C (second compound 0.0316 µM, first compound 10 µM) of 31.5%. For the same molecule, the viability, T/C [9] was 88.2%, the viability, T/C (second compound 0.1 µM, first compound 0.1 µM) was 94.7% and the viability, T/C [10] was 76.6%. The viability, T/C (second compound 0.1 µM, first compound 1 µM) was 69.6%, the viability, T/C (second compound 0.1 µM, first compound 3.16 µM) was 30.8% and the viability, T/C (second compound 0.1 µM, first compound 10 µM) was 27.3%. It also gave a viability, T/C [11] of 92.7%, a viability, T/C (second compound 0.316 µM, first compound 0.1 µM) of 81.2% and a viability, T/C [12] of 95.9%. For the same molecule, the viability, T/C (second compound 0.316 µM, first compound 1 µM) was 65.9%, the viability, T/C (second compound 0.316 µM, first compound 3.16 µM) was 34.9% and the viability, T/C (second compound 0.316 µM, first compound 10 µM) was 31.5%. For the same molecule, the viability, T/C [13] was 120%, the viability, T/C (second compound 1 µM, first compound 0.1 µM) was 99.5% and the viability, T/C [14] was 91.9%. It also gave a viability, T/C (second compound 1 µM, first compound 1 µM) of 71.1%, a viability, T/C (second compound 1 µM, first compound 3.16 µM) of 37.4% and a viability, T/C (second compound 1 µM, first compound 10 µM) of 29.6%. For the same molecule, the viability, T/C [15] was 92.4%, the viability, T/C (second compound 3.16 µM, first compound 0.1 µM) was 94.5% and the viability, T/C [16] was 119%. For the same molecule, the viability, T/C (second compound 3.16 µM, first compound 1 µM) was 75.2%, the viability, T/C (second compound 3.16 µM, first compound 3.16 µM) was 36.2% and the viability, T/C (second compound 3.16 µM, first compound 10 µM) was 28.9%. It also gave a viability, T/C [17] of 97.5%, a viability, T/C (second compound 10 µM, first compound 0.1 µM) of 115% and a viability, T/C [18] of 92.7%. It also gave a viability, T/C (second compound 10 µM, first compound 1 µM) of 67.8%, a viability, T/C (second compound 10 µM, first compound 3.16 µM) of 27.2% and a viability, T/C (second compound 10 µM, first compound 10 µM) of 28.3%.

With `O=C(NO)c1cnc(N2CCN(S(=O)(=O)c3ccc4ccccc4c3)CC2)nc1` the viability, T/C (compound 0.0316 µM) was 99.8% and 95.4% and 87.7%, the viability, T/C (compound 0.1 µM) was 103% and 87.4% and 81.9% and the viability, T/C (compound 0.316 µM) was 73.4% and 75% and 32.2%. For the same molecule, the viability, T/C (compound 1 µM) was 3.62% and 4.16% and 0.67%, the viability, T/C (compound 3.16 µM) was 0.32% and 0.22% and the viability, T/C (compound 10 µM) was 0.34% and 0.21%. The IC50 (curve of compound) was 0.465 µM and 0.475 µM and 0.21 µM.

— PubChem BioAssay AID2060513 (Molecular Pharmacology Branch, DTP, NCI, 2025)
